PubChem BioAssay AID1963962 (Molecular Pharmacology Branch, DTP, NCI, 2024)

Test system: 967376-340-R-J2-PDC multicell spheroid viability
Assay: Anticancer human tumor 967376-340-R-J2-PDC patient-derived colon adenocarcinoma cell line growth inhibition [PI3K]
Details: for IC50: curve of first compound; for viability, T/C: stronger effect = lower value
Text: Combinatorial screen of targeted agents with the PI3K inhibitors inavolisib, alpelisib, duvelisib, and copanlisib in multi-cell type tumor spheroids
A high-throughput screen of multi-cell type tumor spheroids was designed to identify active combinations of targeted small molecules and PI3K pathway inhibitors. Complex spheroids include a stromal component modeled by human endothelial cells (HUVEC) and fibroblasts modeled by human mesenchymal stem cells (MSCs). The concentration ranges selected for each drug and investigational agent were based upon clinically achievable concentrations if the clinical Cmax of the agent was known.
Compounds. The drugs and investigational agents: inavolisib (NSC800729), alpelisib (NSC765974), duvelisib (NSC772469), copanlisib (NSC816437), ipatasertib (NSC767898), afuresertib (NSC778305), talazoparib (NSC767125), sapanisertib (NSC764658), selumetinib (NSC741078), tovorafenib (DAY101, NSC766906), vemurafenib (NSC761431), ravoxertinib (NSC781343), sotorasib (NSC818433), MRTX1133 (NSC 836407), abemaciclib (NSC 768073), palbociclib (NSC758247), venetoclax (NSC 766270), SY5609 (NSC837396), enzalutamide (NSC755605), and darolutamide (NSC825331), were obtained from the National Cancer Institute (NCI) Developmental Therapeutics Program Chemical Repository. The FDA-approved anticancer drug set is available from the NCI Developmental Therapeutics Program. […] The stock solutions were prepared in dimethyl sulfoxide (DMSO, Sigma-Aldrich, St. Louis, MO, cat. D2650) at 800-fold the tested concentration and stored at -70 degrees C prior to their use. All drugs and investigational agents were tested over a range starting from a high concentration at or near the clinical Cmax and decreasing in half-log increments. If the clinical Cmax for an agent had not been determined, the highest concentration tested was 10 microM.
Cell Culture. All cells were maintained in an incubator at 37 degrees C and 5% CO2 with 95% humidity. The PDC lines were cultured according to standard operating procedures established by the NCI PDMR (https://pdmr.cancer.gov/sops/default.htm). All PDCs were thawed and cultured in Matrigel-coated flasks prepared with a working solution of 1X Ham's F-12 nutrient mix, without supplementation (Invitrogen, Waltham, MA, cat. 11765054), 100 U/mL penicillin-streptomycin (Invitrogen, cat. 15140122), and 2.5% Matrigel (Corning Inc., Corning, NY, cat. 354248) for the first three passages. The 354836-022-R-J1-PDC, 475296-252-R-J1-PDC, and 997726-040-R-J2-PDC lines were cultured in 6A media, which includes advanced DMEM/F-12 (Thermo Fisher Scientific, cat. 12634028), 10 mM HEPES (Thermo Fisher Scientific, cat. 15630080), 1X GlutaMAX supplement (Thermo Fisher Scientific, cat. 35050061), 0.1 mg/mL primocin (InvivoGen, San Diego, CA, cat. ant-pm-2), 10% defined fetal bovine serum, heat inactivated (HyClone Laboratories Inc., Logan, UT, cat. SH30070.03HI), 50% L-WRN conditioned media (ATCC, cat. CRL-3276), 1.25 mM N-Acetyl-L-cysteine (Sigma-Aldrich, cat. A9165), 10 mM nicotinamide (Sigma-Aldrich, cat. N0636), 1X B-27 supplement (Thermo Fisher Scientific, cat. 17504044), 1X N-2 supplement (Thermo Fisher Scientific, cat. 17502048), and 10 microM Y-27632 dihydrochloride (Tocris Bioscience, Bristol, United Kingdom, cat. 1254). The 624824-186-R-J2-PDC line was cultured in 6C/Colon 1B media, which includes all 6A media components plus 50 ng/mL human EGF recombinant protein (Thermo Fisher Scientific, cat. PHG0311). […]
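Note: spheroids exposed to agents for 7 days before read-out.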
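Throughout, for viability, T/C: luminescence used as surrogate of cell viability.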

## CNC(=O)c1ccc(N2C(=S)N(c3ccc(C#N)c(C(F)(F)F)c3)C(=O)C2(C)C)cc1F + CC(Nc1ccc2c(c1)OCCn1cc(N3C(=O)OCC3C(F)F)nc1-2)C(N)=O
Second compound 0.00316 µM
  IC50: > 10000 nM
Second compound 0.01 µM
  IC50: > 10000 nM
Second compound 0.0316 µM
  IC50: > 10000 nM
Second compound 0.1 µM
  IC50: > 10000 nM
Second compound 0.316 µM
  IC50: > 10000 nM
Second compound 1 µM
  IC50: > 10000 nM
Second compound 0.00316 µM, first compound 0.0316 µM
  viability, T/C: 90.3%
Second compound 0.00316 µM, first compound 0.1 µM
  viability, T/C: 107%
Second compound 0.00316 µM, first compound 0.316 µM
  viability, T/C: 93.1%
Second compound 0.00316 µM, first compound 1 µM
  viability, T/C: 93.2%
Second compound 0.00316 µM, first compound 3.16 µM
  viability, T/C: 112%
Second compound 0.00316 µM, first compound 10 µM
  viability, T/C: 161%
Second compound 0.01 µM, first compound 0.0316 µM
  viability, T/C: 102%
Second compound 0.01 µM, first compound 0.1 µM
  viability, T/C: 97.8%
Second compound 0.01 µM, first compound 0.316 µM
  viability, T/C: 94.3%
Second compound 0.01 µM, first compound 1 µM
  viability, T/C: 89.5%
Second compound 0.01 µM, first compound 3.16 µM
  viability, T/C: 106%
Second compound 0.01 µM, first compound 10 µM
  viability, T/C: 136%
Second compound 0.0316 µM, first compound 0.0316 µM
  viability, T/C: 83.1%
Second compound 0.0316 µM, first compound 0.1 µM
  viability, T/C: 107%
Second compound 0.0316 µM, first compound 0.316 µM
  viability, T/C: 94.1%
Second compound 0.0316 µM, first compound 1 µM
  viability, T/C: 76.7%
Second compound 0.0316 µM, first compound 3.16 µM
  viability, T/C: 100%
Second compound 0.0316 µM, first compound 10 µM
  viability, T/C: 99.5%
Second compound 0.1 µM, first compound 0.0316 µM
  viability, T/C: 72.4%
Second compound 0.1 µM, first compound 0.1 µM
  viability, T/C: 73.1%
Second compound 0.1 µM, first compound 0.316 µM
  viability, T/C: 73.5%
Second compound 0.1 µM, first compound 1 µM
  viability, T/C: 81.1%
Second compound 0.1 µM, first compound 3.16 µM
  viability, T/C: 77.4%
Second compound 0.1 µM, first compound 10 µM
  viability, T/C: 81%
Second compound 0.316 µM, first compound 0.0316 µM
  viability, T/C: 60.4%
Second compound 0.316 µM, first compound 0.1 µM
  viability, T/C: 60.6%
Second compound 0.316 µM, first compound 0.316 µM
  viability, T/C: 72.5%
Second compound 0.316 µM, first compound 1 µM
  viability, T/C: 66.5%
Second compound 0.316 µM, first compound 3.16 µM
  viability, T/C: 62.1%
Second compound 0.316 µM, first compound 10 µM
  viability, T/C: 67.5%
Second compound 1 µM, first compound 0.0316 µM
  viability, T/C: 57.3%
Second compound 1 µM, first compound 0.1 µM
  viability, T/C: 66%
Second compound 1 µM, first compound 0.316 µM
  viability, T/C: 62.7%
Second compound 1 µM, first compound 1 µM
  viability, T/C: 60.8%
Second compound 1 µM, first compound 3.16 µM
  viability, T/C: 61.6%
Second compound 1 µM, first compound 10 µM
  viability, T/C: 67.5%

## Cn1cnc2c(F)c(Nc3ccc(Br)cc3Cl)c(C(=O)NOCCO)cc21 + CC(Nc1ccc2c(c1)OCCn1cc(N3C(=O)OCC3C(F)F)nc1-2)C(N)=O
Second compound 0.00316 µM
  IC50: 870 nM
Second compound 0.01 µM
  IC50: 564 nM
Second compound 0.0316 µM
  IC50: 461 nM
Second compound 0.1 µM
  IC50: 301 nM
Second compound 0.316 µM
  IC50: 15.7 nM
Second compound 1 µM
  IC50: < 9.49 nM
Second compound 0.00316 µM, first compound 0.00949 µM
  viability, T/C: 91.2%
Second compound 0.00316 µM, first compound 0.03 µM
  viability, T/C: 92.1%
Second compound 0.00316 µM, first compound 0.0949 µM
  viability, T/C: 92.5%
Second compound 0.00316 µM, first compound 0.3 µM
  viability, T/C: 67.9%
Second compound 0.00316 µM, first compound 0.949 µM
  viability, T/C: 50.5%
Second compound 0.00316 µM, first compound 3 µM
  viability, T/C: 22.7%
Second compound 0.01 µM, first compound 0.00949 µM
  viability, T/C: 96%
Second compound 0.01 µM, first compound 0.03 µM
  viability, T/C: 94%
Second compound 0.01 µM, first compound 0.0949 µM
  viability, T/C: 82.2%
Second compound 0.01 µM, first compound 0.3 µM
  viability, T/C: 72.2%
Second compound 0.01 µM, first compound 0.949 µM
  viability, T/C: 30.3%
Second compound 0.01 µM, first compound 3 µM
  viability, T/C: 31.6%
Second compound 0.0316 µM, first compound 0.00949 µM
  viability, T/C: 81.8%
Second compound 0.0316 µM, first compound 0.03 µM
  viability, T/C: 83.2%
Second compound 0.0316 µM, first compound 0.0949 µM
  viability, T/C: 58.3%
Second compound 0.0316 µM, first compound 0.3 µM
  viability, T/C: 55.5%
Second compound 0.0316 µM, first compound 0.949 µM
  viability, T/C: 46.6%
Second compound 0.0316 µM, first compound 3 µM
  viability, T/C: 20.1%
Second compound 0.1 µM, first compound 0.00949 µM
  viability, T/C: 66.2%
Second compound 0.1 µM, first compound 0.03 µM
  viability, T/C: 70.8%
Second compound 0.1 µM, first compound 0.0949 µM
  viability, T/C: 67.8%
Second compound 0.1 µM, first compound 0.3 µM
  viability, T/C: 49.5%
Second compound 0.1 µM, first compound 0.949 µM
  viability, T/C: 18.7%
Second compound 0.1 µM, first compound 3 µM
  viability, T/C: 8.2%
Second compound 0.316 µM, first compound 0.00949 µM
  viability, T/C: 48.2%
Second compound 0.316 µM, first compound 0.03 µM
  viability, T/C: 52.4%
Second compound 0.316 µM, first compound 0.0949 µM
  viability, T/C: 44.1%
Second compound 0.316 µM, first compound 0.3 µM
  viability, T/C: 27.8%
Second compound 0.316 µM, first compound 0.949 µM
  viability, T/C: 23.7%
Second compound 0.316 µM, first compound 3 µM
  viability, T/C: 6.33%
Second compound 1 µM, first compound 0.00949 µM
  viability, T/C: 45.7%
Second compound 1 µM, first compound 0.03 µM
  viability, T/C: 51%
Second compound 1 µM, first compound 0.0949 µM
  viability, T/C: 31.3%
Second compound 1 µM, first compound 0.3 µM
  viability, T/C: 24.6%
Second compound 1 µM, first compound 0.949 µM
  viability, T/C: 9.79%
Second compound 1 µM, first compound 3 µM
  viability, T/C: 4.86%
